Experimental data taken from patent publication US20260053827A1, “Cannabidiol Solid Dosage Forms” (priority 2024, published 2026).

Details: saturation solubility of CBD in the liquid lipid given as label; supernatant assayed
Description: Each liquid lipophilic material was heated at 40° C. for 30 minutes in an oven before being combined with the CBD. 10 g of CBD was combined with 5 g of lipophilic material to create a saturated mixture. […] After agitation the solutions were centrifuged at 14800 rpm for 90 minutes to separate out any remaining undissolved CBD crystals. The resulting supernatant was sampled and assayed for CBD content to confirm the saturation solubility of the lipid.

CCOCCOCCO [Transcutol]
CBD: 653.2 mg/g
